± gives the expanded uncertainty stated by the source.
Experiment: mn = molality of the nth substance listed, in mol/kg
Settings: 101 kPa, Liquid, Linear variable-path acoustic interferometer, m1 = 0.512

Row | SMILES | speed of sound (298.15 K) [m/s] | speed of sound (303.15 K) [m/s] | speed of sound (308.15 K) [m/s] | speed of sound (313.15 K) [m/s] | speed of sound (318.15 K) [m/s] | speed of sound (323.15 K) [m/s]
1 | O=[N+]([O-])[O-].[K+] [potassium nitrate] + O | 1517.8 ± 1.8 | 1526.8 ± 1.8 | 1536.3 ± 1.8 | 1544.4 ± 1.8 | 1551.1 ± 1.8 | 1556.6 ± 1.9
2 | O=S(=O)([O-])[O-].[K+].[K+] [potassium sulfate] + O | 1563.6 ± 1.9 | 1571.6 ± 1.8 | 1580.3 ± 1.8 | 1587.6 ± 1.8 | 1593.5 ± 1.8 | 1598.3 ± 1.9
